Laboratory results reported in patent US10532995B2, “Substituted pyrazole compounds as serine protease inhibitors” (VERSEON CORPORATION, priority 2015, dated 2020).
pIC50: −log10 of the molar value. Structures can show the parent of a compound that is named as a salt.

Target: T1, Human thrombin (Homo sapiens, UniProt P00734)
T1 construct: purchased Haematologic Technologies Inc
Assay: Thrombin protease activity inhibition, chromogenic substrate S-2238
Format: biochemical
Conditions: 3 nM thrombin, 125 μM S-2238, 10 min pre-incubation, RT
Method in brief: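 Thrombin at 3 nM final in 0.05 M Tris pH 7.4, 0.015 M NaCl, 0.01% PEG-8000, at room temperature; compounds as ten-point three-fold dilutions.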

| pIC50 | SMILES |
| --- | --- |
| 6.00 to 7.00 | CC(C)(C)C(=O)n1nc(C2CCN(CC(=O)O)CC2)cc1NCc1ccc(Cl)s1 [Entry 109, 2-[4-(5-[(5-chlorothiophen-2-yl)methyl]amino-1-(2,2-dimethylpropanoyl)-1H-pyrazol-3-yl)piperidin-1-yl]acetic acid] |
| > 7.00 | COc1ccccc1C(=O)n1nc(C2(C)CCCN(C(=O)OC(C)(C)C)C2)cc1NCc1ccc(Cl)s1 (stereo not shown) [Entry 280, tert-butyl 3-(5-[(5-chlorothiophen-2-yl)methyl]amino-1-(2-methoxybenzoyl)-1H-pyrazol-3-yl)-3-methylpiperidine-1-carboxylate] |
| 5.00 to 6.00 | CC(C)(C)OC(=O)N1CCCC1(C)c1cc(NCc2ccc(Cl)s2)n(C(=O)C2(C)CCOCC2)n1 (stereo not shown) [Entry 275, tert-butyl 2-(5-[(5-chlorothiophen-2-yl)methyl]amino-1-(4-methyloxane-4-carbonyl)-1H-pyrazol-3-yl)-2-methylpyrrolidine-1-carboxylate] |
| 4.00 to 5.00 | COc1ccccc1C(=O)n1nc(C2CNC2)cc1NCc1ccc(Cl)s1 [Entry 127, 3-(azetidin-3-yl)-N-[(5-chlorothiophen-2-yl)methyl]-1-(2-methoxybenzoyl)-1H-pyrazol-5-amine hydrochloride] |
| > 7.00 | CC(C)(C)C(=O)n1nc(C2CCN(C(=O)N3CCOCC3)CC2)c(C#N)c1NCc1ccc(Cl)s1 [Entry 140, 5-[(5-chlorothiophen-2-yl)methyl]amino-1-(2,2-dimethylpropanoyl)-3-[1-(morpholine-4-carbonyl)piperidin-4-yl]-1H-pyrazole-4-carbonitrile] |
| > 7.00 | CN(C)C(=O)N1CCC(c2cc(NCc3ccc(Cl)s3)n(C(=O)C(C)(C)CO)n2)CC1 [Entry 134, 4-(5-[(5-chlorothiophen-2-yl)methyl]amino-1-(3-hydroxy-2,2-dimethylpropanoyl)-1H-pyrazol-3-yl)-N,N-dimethylpiperidine-1-carboxamide] |
| < 4.00 | CS(=O)(=O)N1CCC(c2cc(NCc3ccc(Cl)s3)[nH]n2)CC1 [Entry 173, N-[(5-chlorothiophen-2-yl)methyl]-3-(1-methanesulfonylpiperidin-4-yl)-1H-pyrazol-5-amine] |
| > 7.00 | CN(C)S(=O)(=O)N1CCC(c2cc(NCc3ccc(Cl)s3)n(C(=O)C(C)(C)CO)n2)CC1 [Entry 135, 4-(5-[(5-chlorothiophen-2-yl)methyl]amino-1-(3-hydroxy-2,2-dimethylpropanoyl)-1H-pyrazol-3-yl)-N,N-dimethylpiperidine-1-sulfonamide] |
| > 7.00 | C=CCOC(=O)N1CCCC1c1cc(NCc2ccc(Cl)s2)n(C(=O)c2cscn2)n1 (stereo not shown) [Entry 243, prop-2-en-1-yl 2-(5-[(5-chlorothiophen-2-yl)methyl]amino-1-(1,3-thiazole-4-carbonyl)-1H-pyrazol-3-yl)pyrrolidine-1-carboxylate] |
| 6.00 to 7.00 | COc1ccccc1C(=O)n1nc(C2(C)CCNC2=O)cc1NCc1ccc(Cl)s1 (stereo not shown) [Entry 118, 3-(5-[(5-chlorothiophen-2-yl)methyl]amino-1-(2-methoxybenzoyl)-1H-pyrazol-3-yl)-3-methylpyrrolidin-2-one] |
| < 4.00 | C=CCOC(=O)N1CCN(CC(F)(F)F)CC1c1cc(NCc2ccc(Cl)s2)[nH]n1 (stereo not shown) [Entry 248, prop-2-en-1-yl 2-(5-[(5-chlorothiophen-2-yl)methyl]amino-1H-pyrazol-3-yl)-4-(2,2,2-trifluoroethyl)piperazine-1-carboxylate] |
| < 4.00 | Clc1ccc(CNc2cc(C3CCCNCC3)n[nH]2)s1 (stereo not shown) [Entry 125, 3-(azepan-4-yl)-N-[(5-chlorothiophen-2-yl)methyl]-1H-pyrazol-5-amine] |
| < 4.00 | FC(F)(F)c1cccc(CN2CCC(c3cc(NCc4ccc(Cl)s4)[nH]n3)CC2)n1 [Entry 176, N-[(5-chlorothiophen-2-yl)methyl]-3-(1-[6-(trifluoromethyl)pyridin-2-yl]methylpiperidin-4-yl)-1H-pyrazol-5-amine] |
| 5.00 to 6.00 | O=C(c1ccoc1)n1nc(C2CNC2)cc1NCc1ccc(Cl)s1 [Entry 128, 3-(azetidin-3-yl)-N-[(5-chlorothiophen-2-yl)methyl]-1-(furan-3-carbonyl)-1H-pyrazol-5-amine; trifluoroacetic acid] |
| > 7.00 | C=CCOC(=O)N1CCC(c2nn(C(=O)C(C)(C)C)c(NCc3ccc(Cl)s3)c2C#N)CC1 [Entry 267, prop-2-en-1-yl 4-(5-[(5-chlorothiophen-2-yl)methyl]amino-4-cyano-1-(2,2-dimethylpropanoyl)-1H-pyrazol-3-yl)piperidine-1-carboxylate] |
| > 7.00 | O=C(c1ccoc1)n1nc(C2CCCN2)cc1NCc1ccc(Cl)s1 (stereo not shown) [Entry 167, N-[(5-chlorothiophen-2-yl)methyl]-1-(furan-3-carbonyl)-3-(pyrrolidin-2-yl)-1H-pyrazol-5-amine] |
| > 7.00 | CC(C)(C)C(=O)n1nc(C2CCN(Cc3ccccc3)CC2)cc1NCc1ccc(Cl)s1 [Entry 95, 1-[3-(1-benzylpiperidin-4-yl)-5-[(5-chlorothiophen-2-yl)methyl]amino-1H-pyrazol-1-yl]-2,2-dimethylpropan-1-one] |

| pIC50 | SMILES |
| --- | --- |
| > 7.00 | CC(C)(C)OC(=O)N1CCC(c2cc(NCc3ccc(Cl)s3)n(C(=O)c3ccsc3)n2)CC1 [Entry 301, tert-butyl 4-(5-[(5-chlorothiophen-2-yl)methyl]amino-1-(thiophene-3-carbonyl)-1H-pyrazol-3-yl)piperidine-1-carboxylate] |
| 6.00 to 7.00 | CC(=O)N1CCC(c2cc(NCc3ccc(Cl)s3)n(C(=O)c3ccsc3)n2)CC1 [Entry 102, 1-[4-(5-[(5-chlorothiophen-2-yl)methyl]amino-1-(thiophene-3-carbonyl)-1H-pyrazol-3-yl)piperidin-1-yl]ethan-1-one] |
| 5.00 to 6.00 | CC1(C(=O)n2nc(C3(C)CCCNC3=O)cc2NCc2ccc(Cl)s2)CCOCC1 (stereo not shown) [Entry 121, 3-(5-[(5-chlorothiophen-2-yl)methyl]amino-1-(4-methyloxane-4-carbonyl)-1H-pyrazol-3-yl)-3-methylpiperidin-2-one] |
| 5.00 to 6.00 | COc1ccccc1C(=O)n1nc(C2CCN(CC(F)(F)F)CC2)cc1NCc1ccc(Cl)s1 [Entry 160, N-[(5-chlorothiophen-2-yl)methyl]-1-(2-methoxybenzoyl)-3-[1-(2,2,2-trifluoroethyl)piperidin-4-yl]-1H-pyrazol-5-amine] |
| > 7.00 | CC(C)(C)C(=O)n1nc(C2(C)CCNC2=O)cc1NCc1ccc(Cl)s1 (stereo not shown) [Entry 116, 3-(5-[(5-chlorothiophen-2-yl)methyl]amino-1-(2,2-dimethylpropanoyl)-1H-pyrazol-3-yl)-3-methylpyrrolidin-2-one] |
| 5.00 to 6.00 | O=C(c1ccsc1)n1nc(C2CNC2)cc1NCc1ccc(Cl)s1 [Entry 129, 3-(azetidin-3-yl)-N-[(5-chlorothiophen-2-yl)methyl]-1-(thiophene-3-carbonyl)-1H-pyrazol-5-amine; trifluoroacetic acid] |
| < 4.00 | Cc1cccc(CN2CCC(c3cc(NCc4ccc(Cl)s4)[nH]n3)CC2)n1 [Entry 220, N-[(5-chlorothiophen-2-yl)methyl]-3-1-[(6-methylpyridin-2-yl)methyl]piperidin-4-yl-1H-pyrazol-5-amine] |
| < 4.00 | FC(F)(CN1CCC(c2cc(NCc3ccc(Cl)s3)[nH]n2)CC1)c1ccccn1 [Entry 222, N-[(5-chlorothiophen-2-yl)methyl]-3-1-[2,2-difluoro-2-(pyridin-2-yl)ethyl]piperidin-4-yl-1H-pyrazol-5-amine] |
| > 7.00 | CC(C)(C)OC(=O)N1CCCC(c2cc(NCc3ccc(Cl)s3)n(C(=O)C3(C)CCOCC3)n2)C1 (stereo not shown) [Entry 287, tert-butyl 3-(5-[(5-chlorothiophen-2-yl)methyl]amino-1-(4-methyloxane-4-carbonyl)-1H-pyrazol-3-yl)piperidine-1-carboxylate] |
| < 4.00 | CC(C)(C)OC(=O)N1CCCC(c2cc(NCc3ccc(Cl)s3)[nH]n2)C1 (stereo not shown) [Entry 290, tert-butyl 3-(5-[(5-chlorothiophen-2-yl)methyl]amino-1H-pyrazol-3-yl)piperidine-1-carboxylate] |
| > 7.00 | CC(C)(C)OC(=O)N1CCC(C)(c2cc(NCc3ccc(Cl)s3)n(C(=O)C3(C)CCOCC3)n2)CC1 [Entry 299, tert-butyl 4-(5-[(5-chlorothiophen-2-yl)methyl]amino-1-(4-methyloxane-4-carbonyl)-1H-pyrazol-3-yl)-4-methylpiperidine-1-carboxylate] |
| 6.00 to 7.00 | CC(C)(C)OC(=O)N1CCCC1(C)c1cc(NCc2ccc(Cl)s2)n(C(=O)C(C)(C)CO)n1 (stereo not shown) [Entry 274, tert-butyl 2-(5-[(5-chlorothiophen-2-yl)methyl]amino-1-(3-hydroxy-2,2-dimethylpropanoyl)-1H-pyrazol-3-yl)-2-methylpyrrolidine-1-carboxylate] |
| > 7.00 | C=CCOC(=O)N1CCCC(c2cc(NCc3ccc(Cl)s3)n(C(=O)C(C)(C)C)n2)CC1 (stereo not shown) [Entry 261, prop-2-en-1-yl 4-(5-[(5-chlorothiophen-2-yl)methyl]amino-1-(2,2-dimethylpropanoyl)-1H-pyrazol-3-yl)azepane-1-carboxylate] |
| < 4.00 | CC(C)(C)OC(=O)N1CCC(c2cc(NCc3ccc(Cl)s3)[nH]n2)CC1 [Entry 302, tert-butyl 4-(5-[(5-chlorothiophen-2-yl)methyl]amino-1H-pyrazol-3-yl)piperidine-1-carboxylate] |
| 5.00 to 6.00 | O=C(c1ccoc1)n1nc(C2CCN(Cc3ccccc3)C2)cc1NCc1ccc(Cl)s1 (stereo not shown) [Entry 114, 3-(1-benzylpyrrolidin-3-yl)-N-[(5-chlorothiophen-2-yl)methyl]-1-(furan-3-carbonyl)-1H-pyrazol-5-amine] |
| < 4.00 | C=CCOC(=O)N1CCN(C(=O)N2CCOCC2)CC1c1cc(NCc2ccc(Cl)s2)[nH]n1 (stereo not shown) [Entry 249, prop-2-en-1-yl 2-(5-[(5-chlorothiophen-2-yl)methyl]amino-1H-pyrazol-3-yl)-4-(morpholine-4-carbonyl)piperazine-1-carboxylate] |
| > 7.00 | CC(C)(C)OC(=O)N1CCCC(c2cc(NCc3ccc(Cl)s3)n(C(=O)C(C)(C)C)n2)C1 (stereo not shown) [Entry 279, tert-butyl 3-(5-[(5-chlorothiophen-2-yl)methyl]amino-1-(2,2-dimethylpropanoyl)-1H-pyrazol-3-yl)piperidine-1-carboxylate] |
